Assay results published in US20250026724A1, “(1,4,5-TRISUBSTITUTED 1H-PYRAZOL-3-YL)OXY-2-ALKYLTHIOALKYL ACIDS AND -ALKYL ACID DERIVATIVES, SALTS THEREOF AND USE THEREOF AS ACTIVE HERBICIDAL INGREDIENTS” (BAYER AKTIENGESELLSCHAFT, priority 2021, published 2025).

Experiments:
Format in all cases: in vivo
[1] = tested on: Triticum aestivum (TRZAS); assay: Post-emergence crop plant compatibility, greenhouse pot trial; settings: 20 g/ha, post-emergence, in comparison to untreated controls
Description: Seeds of monocotyledonous and dicotyledonous weeds and crop plants are placed in sandy loam in plastic or organic planting pots, covered with soil and cultivated in a greenhouse under controlled growth conditions. 2 to 3 weeks after sowing, the trial plants are treated at the one-leaf stage. The compounds of the invention, formulated in the form of wettable powders (WP) or as emulsion concentrates (EC), are then sprayed onto the green parts of the plants as aqueous suspension or emulsion with addition of 0.5% additive at a water application rate equivalent to 600 l/ha. After about 3 weeks of keeping the trial plants in the greenhouse under optimum growth conditions, the effect of the preparations is rated visually in comparison to untreated controls. For example, 100% activity=the plants have died, 0% activity=like control plants.
The observed effects on selected crop plants are reported here in comparison to the untreated controls (values in %). The appendices “a”, “b” and “c” give differentiation by dosage used with otherwise the same useful plants tested.
As shown by results from Tables B1 to B19, inventive compounds of the general formula (I) in the case of post-emergence treatment have good herbicidal efficacy against harmful plants, for example Abutilon theophrasti (ABUTH), Alopecurus myosuroides (ALOMY), Amaranthus retroflexus (AMARE), Avena fatua (AVEFA), Digitaria sanguinalis (DIGSA), Echinochloa crus-galli (ECHCG), Bassia scoparia (KCHSC), Lolium rigidum (LOLRI), Matricaria inodora (MATIN), Pharbitis purpurea (PHBPU), Polygonum convolvulus (POLCO), Setaria viridis (SETVI), Veronica persica (VERPE) and Viola tricolor (VIOTR) at an application rate of 320 g of active substance or less per hectare, and good crop plant compatibility in the case of organisms such as Oryza sativa (ORYSA), Zea mays (ZEAMX), Brassica napus (BRSNW), Glycine max (GLXMA) and Triticum aestivum (TRZAS) at an application rate of 320 g or less per hectare.

[2] = tested on: Lolium rigidum (LOLRI); assay: Post-emergence herbicidal action, greenhouse pot trial; settings: 320 g/ha, visual rating after about 3 weeks; for pest or weed control at 320 g/ha: Lolium rigidum, 504 h, read-out: Post-emergence effect at 320 g/ha against LOLRI in %
Summary of the method: (§1)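 Sandy loam pots, greenhouse; one-leaf stage (2–3 wk after sowing); WP/EC in water, 0.5% additive, 600 l/ha spray volume; ≤320 g/ha; visual score vs untreated at ~3 wk, 0–100%.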

[3] = tested on: Polygonum convolvulus (POLCO); assay: as above; settings: visual rating after about 3 weeks; for pest or weed control at 80 g/ha / pest or weed control at 320 g/ha: Fallopia convolvulus, 504 h; for pest or weed control at 80 g/ha: read-out: Post-emergence effect at 80 g/ha against POLCO in %; for pest or weed control at 320 g/ha: read-out: Post-emergence effect at 320 g/ha against POLCO in %
Summary of the method: as §1

[4] = tested on: Matricaria inodora (MATIN); assay: as above; settings: visual rating after about 3 weeks; for pest or weed control at 320 g/ha / pest or weed control at 80 g/ha: Tripleurospermum inodorum, 504 h; for pest or weed control at 320 g/ha: read-out: Post-emergence effect at 320 g/ha against MATIN in %; for pest or weed control at 80 g/ha: read-out: Post-emergence effect at 80 g/ha against MATIN in %
Summary of the method: as §1

[5] = tested on: Abutilon theophrasti (ABUTH); assay: as above; settings: visual rating after about 3 weeks; for pest or weed control at 80 g/ha / pest or weed control at 320 g/ha: Abutilon theophrasti, 504 h; for pest or weed control at 80 g/ha: read-out: Post-emergence effect at 80 g/ha against ABUTH in %; for pest or weed control at 320 g/ha: read-out: Post-emergence effect at 320 g/ha against ABUTH in %
Summary of the method: as §1

[6] = tested on: Digitaria sanguinalis (DIGSA); assay: as above; settings: visual rating after about 3 weeks; for pest or weed control at 320 g/ha: Digitaria sanguinalis, 504 h, read-out: Post-emergence effect at 320 g/ha against DIGSA in %
Summary of the method: as §1

[7] = tested on: Avena fatua (AVEFA); assay: as above; settings: 320 g/ha, visual rating after about 3 weeks; for pest or weed control at 320 g/ha: Avena fatua, 504 h, read-out: Post-emergence effect at 320 g/ha against AVEFA in %
Summary of the method: as §1

[8] = tested on: Echinochloa crus-galli (ECHCG); assay: as above; settings: visual rating after about 3 weeks; for pest or weed control at 320 g/ha: read-out: Post-emergence effect at 320 g/ha against ECHCG in %
Summary of the method: as §1

[9] = tested on: Setaria viridis (SETVI); assay: as above; settings: visual rating after about 3 weeks; for pest or weed control at 320 g/ha: Setaria viridis, 504 h, read-out: Post-emergence effect at 320 g/ha against SETVI in %
Summary of the method: as §1

[10] = tested on: Amaranthus retroflexus (AMARE); assay: as above; settings: visual rating after about 3 weeks; for pest or weed control at 80 g/ha / pest or weed control at 320 g/ha: Amaranthus retroflexus, 504 h; for pest or weed control at 80 g/ha: read-out: Post-emergence effect at 80 g/ha against AMARE in %; for pest or weed control at 320 g/ha: read-out: Post-emergence effect at 320 g/ha against AMARE in %
Summary of the method: as §1

[11] = tested on: Bassia scoparia (KCHSC); assay: as above
Summary of the method: as §1

[12] = tested on: Alopecurus myosuroides (ALOMY); assay: as above; settings: 320 g/ha, visual rating after about 3 weeks
Summary of the method: as §1

[13] = tested on: Pharbitis purpurea (PHBPU); assay: as above; settings: Ipomoea purpurea, 504 h, visual rating after about 3 weeks; for pest or weed control at 80 g/ha: read-out: Post-emergence effect at 80 g/ha against PHBPU in %; for pest or weed control at 320 g/ha: read-out: Post-emergence effect at 320 g/ha against PHBPU in %
Summary of the method: as §1

[14] = tested on: Veronica persica (VERPE); assay: as above; settings: visual rating after about 3 weeks; for pest or weed control at 320 g/ha: Veronica persica, 504 h, read-out: Post-emergence effect at 320 g/ha against VERPE in %
Summary of the method: as §1

[15] = tested on: Viola tricolor (VIOTR); assay: as above; settings: Viola tricolor, 504 h, read-out: Post-emergence effect against VIOTR
Summary of the method: as §1

[16] = Echinochloa crus-galli, 504 h, 320 g/ha
[17] = Bassia scoparia, 504 h, 320 g/ha, read-out: Post-emergence effect against KCHSC

| SMILES | Post-emergence effect at 80 g/ha against DIGSA in % [6] [%] | pest or weed control at 80 g/ha ([3]; 80 g/ha) [%] | pest or weed control at 320 g/ha ([3]; 320 g/ha) [%] | pest or weed control at 320 g/ha ([4]; 320 g/ha) [%] | pest or weed control at 80 g/ha [13] [%] | pest or weed control at 320 g/ha [13] [%] | pest or weed control at 320 g/ha [14] [%] | pest or weed control at 320 g/ha [8, 16] [%] | pest or weed control at 320 g/ha ([9]; 320 g/ha) [%] | pest or weed control at 20 g/ha [15] [%] | pest or weed control at 80 g/ha [15] [%] | pest or weed control at 320 g/ha [15] [%] | pest or weed control at 80 g/ha ([10]; 80 g/ha) [%] | pest or weed control at 320 g/ha ([10]; 320 g/ha) [%] | pest or weed control at 320 g/ha [2] [%] | pest or weed control at 80 g/ha ([4]; 80 g/ha) [%] | pest or weed control at 80 g/ha ([5]; 80 g/ha) [%] | pest or weed control at 320 g/ha ([5]; 320 g/ha) [%] | pest or weed control at 320 g/ha ([6]; 320 g/ha) [%] | pest or weed control at 320 g/ha [7] [%] | also measured |
| --- | --- | --- | --- | --- | --- | --- | --- | --- | --- | --- | --- | --- | --- | --- | --- | --- | --- | --- | --- | --- | --- |
| COC(=O)CCOC(=O)C(Oc1nn(-c2ncccc2F)c(-c2ccc(F)nc2)c1Br)SC (racemic) [Example I-32] | 90 | – | – | – | – | – | – | – | – | – | – | – | – | – | – | – | – | – | – | – | Post-emergence effect against TRZAS (crop plant compatibility) [1]: 0%; Post-emergence effect at 320 g/ha against LOLRI in % [2]: 80%; Post-emergence effect at 80 g/ha against POLCO in % ([3]; 80 g/ha): 80%; Post-emergence effect at 320 g/ha against POLCO in % ([3]; 320 g/ha): 90%; Post-emergence effect at 80 g/ha against MATIN in % ([4]; 80 g/ha): 80%; Post-emergence effect at 320 g/ha against MATIN in % ([4]; 320 g/ha): 80%; Post-emergence effect at 80 g/ha against ABUTH in % ([5]; 80 g/ha): 80%; Post-emergence effect at 320 g/ha against ABUTH in % ([5]; 320 g/ha): 90%; Post-emergence effect at 320 g/ha against DIGSA in % ([6]; 320 g/ha): 90%; Post-emergence effect at 320 g/ha against AVEFA in % [7]: 90%; Post-emergence effect at 320 g/ha against ECHCG in % ([8]; 320 g/ha): 90%; Post-emergence effect at 320 g/ha against SETVI in % ([9]; 320 g/ha): 80%; Post-emergence effect at 80 g/ha against AMARE in % ([10]; 80 g/ha): 80%; Post-emergence effect at 320 g/ha against AMARE in % ([10]; 320 g/ha): 80%; Post-emergence effect against KCHSC ([11]; 80 g/ha): 80%; Post-emergence effect against KCHSC ([11]; 320 g/ha): 90%; Post-emergence effect at 320 g/ha against ALOMY in % [12]: 90% |
| COC(=O)C(Oc1nn(-c2cc(F)ccc2F)c(-c2cncc(F)c2)c1C1CC1)SC (stereo not shown) [Example I-08] | – | 90 | 90 | 80 | 80 | 90 | 90 | 80 | 90 | 90 | 90 | 90 | 80 | 80 | – | – | – | – | – | – | Post-emergence effect at 80 g/ha against VERPE in % ([14]; 80 g/ha): 80% |
| CCOC(=O)C(Oc1nn(-c2ncccc2F)c(-c2cncc(F)c2)c1Br)SC (stereo not shown) [Example I-39] | 80 | 80 | 80 | 90 | 80 | 90 | 80 | 90 | 90 | 80 | 80 | 90 | 80 | 90 | 90 | 80 | 90 | 90 | 90 | 90 | Post-emergence action at 20 g/ha against ABUTH in % ([5]; 20 g/ha): 80%; pest or weed control at 80 g/ha ([8]; Echinochloa crus-galli, 504 h, 80 g/ha, read-out: Post-emergence effect at 80 g/ha against ECHCG in %): 90%; Post-emergence effect at 80 g/ha against SETVI in % ([9]; 80 g/ha): 90%; Post-emergence effect at 20 g/ha against AMARE in % [10]: 80%; Post-emergence effect at 20 g/ha against KCHSC in % ([11]; 20 g/ha, visual rating after about 3 weeks): 80%; pest or weed control at 80 g/ha ([11]; Bassia scoparia, 504 h, 80 g/ha, read-out: Post-emergence effect against KCHSC): 90%; pest or weed control at 320 g/ha [11, 17]: 90% |
| CSC(Oc1nn(-c2ncccc2F)c(-c2cncc(F)c2)c1C1CC1)C(=O)O (stereo not shown) [Example I-44] | – | – | 80 | 90 | – | – | 90 | 90 | 80 | 90 | 90 | 90 | 90 | 90 | – | 80 | – | 90 | – | 90 | Post-emergence effect at 20 g/ha against AMARE in % [10]: 80%; pest or weed control at 320 g/ha [11, 17]: 90% |
| CCOC(=O)C(Oc1nn(-c2ccccc2F)c(-c2ccc(F)nc2)c1C(F)(F)F)SC (stereo not shown) [Example I-46] | – | – | 80 | 90 | – | – | 80 | 90 | 80 | 80 | 80 | 90 | 80 | 80 | 100 | – | 80 | 80 | 80 | – | – |
